Measurements: patent US9060979B2, “Antidepressant” (OTSUKA PHARMACEUTICAL FACTORY, INC., priority 2006, dated 2015)

Tested on: SD rats
Assay: Defensive withdrawal test in rats under stress (time to come out of a cylinder)
Assay type: in vivo, rat
Conditions: for antidepressant effect: same defensive withdrawal tests in SD rats as for L-isoleucine
Protocol: SD rats (10-week-old) were divided into two groups (10 rats in each group). One group (control group) was kept for 6 days with free access to food (standard AIN-76 diet manufactured by Nosan Corporation) and water. The other group (present invention group) was kept for 6 days with free access to food (standard AIN-76 diet containing 1% by mass of L-isoleucine) and water. Using these subject animals, depression-improving activity in rats under stress was tested according to the defensive withdrawal test method by Gutman, D. A. et al. (The Journal of Pharmacology and Experimental Therapeutics, 304 (2), 874 (2003)). That is, a rat (one from each group) was dropped, tail first, into an upright black cylinder 10 cm in diameter and 20 cm in length, and immediately covered with a lid. After 10 seconds, the cylinder was placed in an open field (100 cm long, 100 cm wide, and 45 cm high) made up of white acrylic boards, facing one corner, at a position 20 cm from the corner. […] The test was carried out under an illuminance of 200 1× in a soundproof room, and behavior of the rat was videotaped from above and observed using a monitor outside the soundproof room. Statistical processing was performed by two-sided Student's t-test.

| Compound | time the rat took to come out of the cylinder (SD rats, 10-week-old, 6 days free access to AIN-76 diet containing 1% by mass of the amino acid, observed 5 minutes, compared to control group) | antidepressant effect |
| --- | --- | --- |
| CC[C@H](C)[C@H](N)C(=O)O [L-isoleucine] | significantly shorter time to come out of the cylinder |  |
| CC(C)C[C@H](N)C(=O)O [L-leucine] |  | same antidepressant effect as that of L-isoleucine was confirmed |
| CC(C)[C@H](N)C(=O)O [L-valine] |  | same antidepressant effect as that of L-isoleucine was confirmed |
